US10067120B2, “Use of acetylated tubulin as a biomarker of drug response to furazanobenzimidazoles” (Basilea Pharmaceutica AG, priority 2011, dated 2018)

Columns and labels:
Type in all cases: cell-based, human
A549 NSCLC cells = test: Immunofluorescent staining of microtubules (anti-alpha tubulin); conditions: for Microtubule phenotype of mitotic or G2/M arrested cells: 24 hours, 50 nM BAL27862, 80 nM Compound B, 20 nM Compound C
Description: (§1) A549 human non-small cell lung cancer (NSCLC, ATCC reference number CCL-185) cells, HeLa cervical cancer cells (ATCC reference number CCL-2) and SKBR3 breast carcinoma cells (ATCC reference number HTB-30) were seeded at densities of 50% on round microscope coverslips and cultured for 24 hours in RPMI-1640 containing 10% FCS (also referred to as FBS) at 37° C., 5% CO2. Compounds to be tested were dissolved in DMSO. The cell culture medium was replaced with medium containing the diluted compound(s) (paclitaxel, vinblastine, colchicine and nocodazole were purchased from Sigma-Aldrich) or vehicle. After treatment for the times indicated in the Brief Description of the Figures, coverslips were washed and cells were fixed in methanol/acetone (1:1) for 5 minutes at room temperature and subsequently incubated in blocking buffer (0.5% BSA and 0.1% TX-100 in PBS) for 30 minutes at room temperature. Specimens were then incubated with anti-alpha tubulin antibody (Sigma, 1:2000) for 1 hour at room temperature in blocking buffer. After several washing steps cells were incubated with AlexaFluor-488 goat-anti-mouse IgG (Molecular Probes, 1:3000) for 1 hour at room temperature followed by several washing steps with blocking buffer. Specimens were then mounted with ProLong Gold antifade (Molecular Probes) sealed with nail polish and examined with a Leica immunofluorescence microscope. Images were captured with a cooled CCD-camera and processed by ImageJ software.

H460 = test: Crystal Violet proliferation assay, BAL27862-resistant versus parental H460; conditions: for Resistance factor (ratio IC50 BAL27862-resistant cell line variant versus IC50 parental cell line): 72 hours, Crystal Violet
Description: (§2) BAL27862-resistant sublines of human non-small cell lung cancer (H460 ATCC reference HTB-177; A549 ATCC reference CCL-185), ovarian cancer (SKOV3 ATCC reference HTB-77) and T-cell leukemia (Jurkat ATCC reference TIB-152) cell lines were generated by long-term selection in complete cell culture medium (RPMI-1640 containing 10% FBS; Sigma-Aldrich) by increasing BAL27862 concentrations in a stepwise fashion. […] The resistance factors were determined for the adherent cell lines H460, A549 and SKOV3 by measuring proliferation using the Crystal Violet assay, whereas for the suspension Jurkat cell line cell death was measured using FACS. The resistant sub lines were expanded at the highest tolerated BAL27862 concentration and subsequently frozen and stored in liquid nitrogen.
(§3) A549 (2000 cells/well), H460 (1000 cells/well) and SKOV3 (2000 cells/well) cells were seeded in 96 well plates. […] After medium was removed, cells were fixed and stained by adding 50 μl Crystal Violet stain (0.2% Crystal Violet in 50% Methanol) per well. Plates were incubated for 1 hour at room temperature. Subsequently the stain was decanted and plates were washed 4 times with double-distilled water. Plates were air-dried for several hours. Stain was dissolved by adding 100 μl buffer (0.1 M Tris pH 7.5, 0.2% SDS, 20% Ethanol) per well and shaking the plates. Absorbance at 590 nm was measured using a SpectraMax M2e plate reader (Molecular Devices).
(§4) Antiproliferative IC50 and cell death EC50 values were calculated from concentration response curves using GraphPad Prism software. Resistance factors were calculated as a ratio of the IC50 or EC50 in the resistant line variant versus the IC50 or EC50 in the parental line.

A549 = test: Crystal Violet proliferation assay, BAL27862-resistant versus parental A549; conditions: for Resistance factor (ratio IC50 BAL27862-resistant cell line variant versus IC50 parental cell line): 72 hours, Crystal Violet
Description: as §2, §3, §4

SKOV3 = test: Crystal Violet proliferation assay, BAL27862-resistant versus parental SKOV3; conditions: for Resistance factor (ratio IC50 BAL27862-resistant cell line variant versus IC50 parental cell line): 72 hours, Crystal Violet
Description: as §2, §3, §4

[1] = tested on: SKBR3 breast cancer cells; test: Immunofluorescent staining of microtubules (anti-alpha tubulin); conditions: 24 hours, 50 nM BAL27862
Description: as §1

[2] = tested on: HeLa cervical cancer cells; test: as above; conditions: 24 hours, 50 nM BAL27862
Description: as §1

Jurkat = test: FACS cell death assay, BAL27862-resistant versus parental Jurkat cells expressing GFP
Description: as §2, with “The resistant sub lines were expanded at the highest tolerated BAL27862 concentration and subsequently frozen and stored in liquid nitrogen.” left out
Jurkat cells stably expressing GFP (green fluorescence protein) were incubated with increasing BAL27862 concentrations in culture medium for 72 hours and then analyzed by FACS (excitation at 488 nm, emission at 525 nm). Dying or dead cells, showing a decreased fluorescence activity in comparison to living cells, were quantified (Green fluorescent protein as a novel tool to measure apoptosis and necrosis. Strebel et al, 2001, Cytometry 43(2): 126-133).
as §4

BAL27862-resistant cells = test: Response of BAL27862-resistant lines to other microtubule agents (all lines tested); conditions: all lines tested (Table 1)
Description: as §2
A549 (2000 cells/well), H460 (1000 cells/well) and SKOV3 (2000 cells/well) cells were seeded in 96 well plates. […] After medium was removed, cells were fixed and stained by adding 50 μl Crystal Violet stain (0.2% Crystal Violet in 50% Methanol) per well. […] Absorbance at 590 nm was measured using a SpectraMax M2e plate reader (Molecular Devices).
as §4

Row | SMILES | Microtubule phenotype of mitotic or G2/M arrested cells (A549 NSCLC cells) | Resistance factor (ratio IC50 BAL27862-resistant cell line variant versus IC50 parental cell line) (H460) | Resistance factor (ratio IC50 BAL27862-resistant cell line variant versus IC50 parental cell line) (A549) | Resistance factor (ratio IC50 BAL27862-resistant cell line variant versus IC50 parental cell line) (SKOV3; SKOV3 resistant 1) | Resistance factor (ratio IC50 BAL27862-resistant cell line variant versus IC50 parental cell line) (SKOV3; SKOV3 resistant 2) | further results
1 | N#CCCNc1nonc1-c1nc2ccccc2n1CC(=O)c1ccc(N)nc1 [Compound C, 3-(4-{1-[2-(6-Amino-pyridin-3-yl)-2-oxo-ethyl]-1H-benzoimidazol-2-yl}-furazan-3-ylamino)-propionitrile] | dot-like structures | – | – | – | – | –
2 | COc1cc2c(c(OC)c1OC)-c1ccc(OC)c(=O)cc1[C@@H](NC(C)=O)CC2 [Colchicine, colchicine] | – | 1.6 | 0.9 | 2.0 | 2.8 | –
3 | N#CCCNc1nonc1-c1nc2ccccc2n1CC(=O)c1ccc(N)cc1 [BAL27862, 3-(4-{1-[2-(4-Amino-phenyl)-2-oxo-ethyl]-1H-benzoimidazol-2-yl}-furazan-3-ylamino)-propionitrile] | dot-like structures | 5.3 | 3.0 | 7.6 | 11.6 | Microtubule phenotype of mitotic or G2/M arrested cells [1]: dot-like structures; Microtubule phenotype of mitotic or G2/M arrested cells [2]: dot-like structures; Microtubule phenotype on combination treatment (A549 NSCLC cells; 24 hours vinblastine, colchicine, paclitaxel or nocodazole, BAL27862 added for the last 4 hours): disruption of the microtubule structures; Resistance factor versus parental line (based on IC50) (H460): 5.3 fold; Resistance factor versus parental line (based on IC50) (A549): 3.0 fold; Resistance factor versus parental line (based on EC50) (Jurkat): 22.5 fold; Resistance factor (ratio EC50 BAL27862-resistant cell line variant versus EC50 parental cell line) (Jurkat; 72 hours, cell death by FACS): 22.5; Resistance factor versus parental line (based on IC50) (SKOV3; SKOV3 resistant 1): 7.6 fold; Resistance factor versus parental line (based on IC50) (SKOV3; SKOV3 resistant 2): 11.6 fold
4 | CC(=O)O[C@H]1C(=O)[C@@]2(C)[C@H]([C@H](OC(=O)c3ccccc3)[C@]3(O)C[C@H](OC(=O)[C@H](O)[C@@H](NC(=O)c4ccccc4)c4ccccc4)C(C)=C1C3(C)C)[C@]1(OC(C)=O)CO[C@@H]1C[C@@H]2O [Paclitaxel, paclitaxel] | – | 0.3 | 0.06 | 0.4 | 0.5 | Sensitivity of BAL27862-resistant lines compared to parental lines (BAL27862-resistant cells): increased sensitivity
5 | CC[C@]1(O)C[C@@H]2CN(CCc3c([nH]c4ccccc34)[C@@](C(=O)OC)(c3cc4c(cc3OC)N(C)[C@H]3[C@@](O)(C(=O)OC)[C@H](OC(C)=O)[C@]5(CC)C=CCN6CC[C@]43[C@@H]65)C2)C1 [Vinblastine, vinblastine] | – | 4.6 | 2.3 | 15.7 | – | –
6 | COC(=O)Nc1nc2ccc(C(=O)c3cccs3)cc2[nH]1 [Nocodazole, nocodazole] | – | 1.3 | 1.6 | 3.6 | 3.9 | –
7 | Nc1ccc(C(=O)Cn2c(-c3nonc3N)nc3ccccc32)cc1 [Compound B, 2-[2-(4-Amino-furazan-3-yl)-benzoimidazol-1-yl]-1-(4-amino-phenyl)-ethanone] | dot-like structures | – | – | – | – | –
